From patent publication US20200277301A1 (ALFASIGMA S.P.A., priority 2005, published 2020)

What was measured:
in vivo = assay: in vivo; parameters: species or system Beagle female dogs; details: female, Beagle, dog, po, 100 mg/kg
Procedure: Eight pure-bred Beagle females dogs having 20 weeks of age and weighing between 5.0 and 7.5 kg have been divided into two groups of four.
Each sample has been transferred into a tube containing heparin as anticoagulant and has been centrifuged; the plasma has been divided into two aliquots, each of 500 μl, and has been frozen at −20° C.
Tmax=time at which the Cmax is reached;
AUC=area under the concentration-time curve calculated through the linear trapezoidal rule.

[1] = Hygroscopicity of the polymorphous forms; type: physicochemical; details: absorb water in a reversible way under suitable pressure and ambient humidity
From the text: Both the forms δ and ε of the rifaximin are hygroscopic, they absorb water in a reversible way during the time in the presence of suitable conditions of pressure and humidity in the ambient and are susceptible of transformation to other forms.

Compound | AUC0-24 Mean (in vivo) | Cmax Mean (in vivo) | Tmax Mean (in vivo) | Cmax (in vivo; Cmax) | hygroscopicity (in words) [1] | Tmax (in vivo)
CO[C@H]1/C=C/O[C@@]2(C)Oc3c(C)c(O)c4c(O)c(c5c(nc6cc(C)ccn65)c4c3C2=O)NC(=O)/C(C)=C\C=C\[C@H](C)[C@H](O)[C@@H](C)[C@@H](O)[C@@H](C)[C@H](OC(C)=O)[C@@H]1C [Polymorph δ, rifaximin] | 801 ng·h/mL | 308.31 ng/mL | 2 h | 308 ng/mL | hygroscopic | –
CO[C@H]1/C=C/O[C@@]2(C)Oc3c(C)c(O)c4c(O)c(c5c(nc6cc(C)ccn65)c4c3C2=O)NC(=O)/C(C)=C\C=C\[C@H](C)[C@H](O)[C@@H](C)[C@@H](O)[C@@H](C)[C@H](OC(C)=O)[C@@H]1C [Polymorph ε, rifaximin] | 42 ng·h/mL | 6.86 ng/mL | – | – | hygroscopic | 4 h
